Results as given in US6653342B2, “13-substituted milbemycin derivatives, their preparation and their use against insects and other pests” (Sankyo Company, Limited, priority 2000, dated 2003).
“And” between values parts separate entries of the source, which are not always exact repeats. Equal entries are not always repeated.

Key:
[1] = system: cat fleas; test: whole plant or invertebrate; format: in vivo; details: 1 ppm in bovine serum sucked through Parafilm at 37° C.; dead fleas after 48 hours; 20 fleas per group; corrected by control group
Experimental: A test container wherein the living space of fleas was isolated from bovine serum by use of Parafilm™ (obtainable from Aldrich Chemical Co. Ltd.), which is usually used as an artificial skin, was prepared. A compound to be tested was added to the bovine serum in an amount sufficient for its concentration to be 1 ppm, and the fleas were allowed to suck the serum sample through the Parafilm™ at 37° C. Each group consisted of 20 fleas. […] By counting the dead fleas in a control group without a test compound, the mortality was corrected.

[2] = system: cat fleas; test: Test on elimination of fleas from dogs (Test Examples 2 and 3); format: in vivo, Ctenocephalides felis; details: beagles
Experimental: Beagles provided for the test were infected with cat fleas prior to the commencement of the test. The number of fleas collected from the surface of the body of the dog three days after infection was counted and an infection ratio, calculated as the ratio of the fleas counted three days after infection to the initial number used to infect the dog, was determined for each dog.
The resulting test solution was administered dropwise to the interscapular region of each of four test beagles (4 to 7 months old) at a dose of 5 mg/kg body weight. On Day 7, Day 21 and Day 28 after administration of the test compound, each dog was infected with 100 cat fleas. The number of fleas collected from the surface of the bodies of the dogs three days after infection was counted. The number of fleas obtained before and after administration was determined to give an elimination ratio.
Thus, even 28 days after administration of the test compound, the elimination ratio was 100%.

[3] = system: roundworms (Toxocara canis); test: Test on effect against roundworms in naturally infected dogs (Test Example 4); format: in vivo; details: dogs naturally infected with roundworm, one line per dog
Experimental: (§1) For each of these three parasites, the number of eggs per gram (EPG) of dog faeces excreted was measured before, and 7 to 9 days after, administration of the test compound. The number of worms excreted in the faeces of the dog (WEF) between administration of the test compound and the end of the test was measured. Upon completion of the test, each of the test dogs was subjected to post mortem to count the number of surviving worms in the digestive tract (SWDT).

[4] = system: hookworms (Ancylostoma caninum); test: Test on effect against hookworms in naturally infected dogs (Test Example 5); format: in vivo; details: dogs naturally infected with hookworm, one line per dog
Experimental: as §1

[5] = system: whipworms (Trichuris vulpis); test: Test on effect against whipworms in naturally infected dogs (Test Example 6); format: in vivo; details: dogs naturally infected with whipworm, one line per dog
Experimental: as §1

[6] = system: Perforating Scabies (Sarcoptes scabiei); test: Test on effect against perforating scabies, naturally infected dog (Test Example 7); format: in vivo
Experimental: (§2) Dogs and cats naturally infected with scabies were provided for the test. […] This was administered at a rate of 5 mg/kg body weight to a test animal in its poll region. The epidermis was scraped off the test animal from its ears and limbs before administration and then three weeks after administration of the test compound. The epidermis thus obtained was then charged in a 10% potassium hydroxide solution and the number of worm bodies and eggs was observed microscopically.

[7] = system: Perforating Scabies (Sarcoptes scabiei); test: Test on effect against perforating scabies, naturally infected cat (Test Example 7); format: in vivo
Experimental: as §2

[8] = system: Southern root-knot nematode; test: Test on insecticidal effect against Southern root-knot nematode, cucumber on agar plate (Test Example 10); format: in vivo; details: 1000 ppm solution on filter paper disks
Experimental: An agar plate (80 ml: containing 1.25 ppm of kanamycin, 1.25 ppm of streptomycin and 0.8585 ppm of penicillin) was prepared in a container (70×70×20 mm). The plate was planted with a cucumber in the cotyledon stage of development. […] One of the thus-treated paper disks was put into the agar plate and two further treated paper disks were laid over the cotyledon.
After treatment, the container was covered with an acrylic plate to prevent water evaporation. Four days later, about 2.5 ml of a suspension containing 500 second-stage larvae of Southern root-knot nematode were added dropwise to the agar plate. Ten days after addition of the larvae, the number of galls of nematodes was estimated. Each test was conducted at a temperature of 25° C. and a humidity of 65%. “Untreated” in this test is a control in which water was used to soak the filter paper instead of the test compound solution.
The following criteria were used to judge the results obtained:
0: equal to the treatment-free group (51 to 150 galls)
1: slightly less than the treatment-free group (36 to 50 galls)
2: less than the treatment-free group (21 to 35 galls)
3: markedly less than the treatment-free group (0 to 20 galls)

[9] = system: microfilariae (mf); test: Test on activity against microfilariae in culture with or without neutrophils (Test Example 8); details: 37° C., 5% CO2, compared to broth containing mf only
[10] = 5 mg/kg dropwise to poll region
[11] = 5 mg/kg to poll region, epidermis scraped from ears and limbs, counted microscopically

CCC1OC2(CCC1C)CC1CC(CC=C(C)C(OC(=O)C3(c4ccc(NC(=O)COC)cc4)CCCC3)C(C)C=CC=C3COC4C(O)C(C)=CC(C(=O)O1)C34O)O2 (stereo not drawn) [Example 1(c), 13-[1-(4-Methoxyacetylaminophenyl)cyclopentanecarbonyloxy]-5-hydroxy-milbemycin A4]
Mortality (%) [1]: 90.2%
elimination ratio ([2]; 5 mg/kg body weight dropwise to interscapular region (10% w/v solution), infected with 100 cat fleas 28 days after administration, counted three days after infection): 100%
number of fleas collected from the surfaces of the bodies of the dogs three days after infection ([2]; 5 mg/kg dropwise, infection with 100 cat fleas on each of Day 7, Day 21 and Day 28 after administration): no fleas were collected
EPG after 7-9 Days ([3]; 5 mg/kg dropwise to poll region, eggs per gram of faeces): 0 eggs per gram
WEF (number of worms excreted in the faeces) ([3]; 5 mg/kg dropwise, between administration and end of test, 5 mg/kg): 3 and 5 and 8
Elimination ratio (%) ([3]; 5 mg/kg dropwise): 100%
SWDT (number of surviving worms in the digestive tract) ([3]; 5 mg/kg dropwise, post mortem): 0
EPG after 7-9 Days [4, 10]: 0 eggs per gram
Elimination ratio (%) ([4]; 5 mg/kg dropwise): 100%
SWDT (number of surviving worms in the digestive tract) ([4]; 5 mg/kg dropwise, post mortem): 0
EPG after 7-9 Days [5, 10]: 0 eggs per gram
Elimination ratio (%) ([5]; 5 mg/kg dropwise): 100%
SWDT (number of surviving worms in the digestive tract) ([5]; 5 mg/kg dropwise, post mortem): 0
After administration (three weeks later) Egg [6, 11]: 0
After administration (three weeks later) Worm body [6, 11]: 9
oviposition of scabies ([6]; 5 mg/kg, after three weeks): prevented completely
After administration (three weeks later) Egg [7, 11]: 0
After administration (three weeks later) Worm body [7, 11]: 0
effects against scabies ([7]; 5 mg/kg, after three weeks): 100%
oviposition preventing effects ([7]; 5 mg/kg, after three weeks): 100%
Effect (result) ([8]; graded by number of galls ten days after addition of larvae): 3 (markedly less than the treatment-free group (0 to 20 galls))
Number of galls ([8]; ten days after addition of 500 second-stage larvae, 25° C., humidity 65%): 6
Percentage reduction of microfilariae ([9]; mf + neutrophils + test compound (100 ng/ml)): 53.8%
Percentage reduction of microfilariae ([9]; mf + test compound (100 ng/ml), no neutrophils): 0.02%
